One experiment concerns Sprague Dawley rats. The following applies: reference [24]; cited from earlier work.
The next experiment deals with T1, purified bovine mRPE65 (Bos taurus, UniProt Q28175).
T1 construct: mRPE65 was extracted and purified from the bovine eye cups using a procedure described earlier; tissue W. L. Lawson Co; host or cells: bovine eye cups (retinal pigment epithelium)
Kind of experiment: Fluorescence titration of mRPE65 with TDT and TDH. As to conditions: 0.952 μM mRPE65, phosphate buffered saline pH 7.4, 1% CHAPS; read-out: KD for binding to mRPE65. As to the method:
Purification of mRPE65: mRPE65 was extracted and purified from the bovine eye cups using a procedure described earlier. Protein purity was established by silver staining and Western blotting (1:4000 primary antibody—1 h at room temperature and 1:4000 secondary antibody 0.5 h at room temperature). Buffers were changed by dialysis in the request buffer overnight in a slide-a-lyser™ cassette from Pierce (10 KDa MWCO). RPE65 solutions were concentrated with an Amicon Ultra™ centrifugal filtration device (30 KDa-cutoff) from Millipore Corp. The final protein solution contained 100 mM phosphate buffered saline (150 mM NaCl) pH 7.4 and 1% CHAPSO. The protein concentration was measured by a modified Lowry method using the Bio-Rad DC protein assay protocol.
Fluorescence binding assays: RPE65 in PBS, 1% CHAPS, pH 7.4 was used in the fluorometric titration studies. All titrations were performed at 25° C. The samples in PBS buffer were excited at 280 nm and the fluorescence was scanned from 300 to 500 nm. Fluorescence measurements, using 450 μL quartz cuvettes with a 0.5 cm path length, were made at 25° C. on a Jobin Yvon Instruments, Fluoromax 2 employing the right-angle detection method.
The fluorescence of the protein solution was measured after equilibrating it at 25° C. for 10 min. […] The binding constant (KD) was calculated from the fluorescence intensity as described before (17,19). […]

In a further experiment the test system is Abca4−/− mice. Kind of experiment: A2E accumulation after chronic treatment of Abca4−/− mice. Format: in vivo. The following applies: 50 mg/kg i.p. twice a week for 2 months. As to the method: Tissue extraction and HPLC analysis: Posterior eye cups were pooled and homogenized in PBS using a tissue grinder. An equal volume of a mixture of chloroform/methanol (2:1) was added and the sample was extracted three times. To remove insoluble material, extracts were filtered through cotton and passed through a reversed phase (C18 Sep-Pak, Millipore) cartridge with 0.1% TFA in methanol. After removing solvent by evaporation under gas, the extract was dissolved in methanol containing 0.1% TFA, for HPLC analysis. For quantification of A2E, a Waters Alliance 2695 HPLC was employed with a Atlantis® dC18 column (Waters, 4.6×150 mm, 3 μm) and the following gradient of acetonitrile in water (containing 0.1% trifluoroacetic acid): 90-100% (0-10 min), 100% acetonitrile (10-20 min), and a flow rate of 0.8 mL/min with monitoring at 430 nm. The injection volume was 10 μL. […] Levels of A2E and iso-A2E were determined by reference to an external standard of HPLC-purified A2E/iso-A2E. […]
As shown in FIGS. 29A-D, both compounds, but especially TDT, were highly efficient in lowering A2E accumulation. FIGS. 29A-D show quantitation of A2E and iso-A2E in eye cups of Abcr −/− mice. […] FIG>29D: A2E/iso-A2E quantitation from integrated peak areas normalized to external standards. Values expressed as picomoles per eye and are based on single samples obtained by pooling 4 eyes.

Data on three compounds can be found in patent US7566808B2, “Management of ophthalmologic disorders, including macular degeneration” (President and Fellows of Harvard College, priority 2004, dated 2009).

In general, Kd refers to a measure of binding affinity in units of concentration.

T1 sequence (Q28175 whole entry): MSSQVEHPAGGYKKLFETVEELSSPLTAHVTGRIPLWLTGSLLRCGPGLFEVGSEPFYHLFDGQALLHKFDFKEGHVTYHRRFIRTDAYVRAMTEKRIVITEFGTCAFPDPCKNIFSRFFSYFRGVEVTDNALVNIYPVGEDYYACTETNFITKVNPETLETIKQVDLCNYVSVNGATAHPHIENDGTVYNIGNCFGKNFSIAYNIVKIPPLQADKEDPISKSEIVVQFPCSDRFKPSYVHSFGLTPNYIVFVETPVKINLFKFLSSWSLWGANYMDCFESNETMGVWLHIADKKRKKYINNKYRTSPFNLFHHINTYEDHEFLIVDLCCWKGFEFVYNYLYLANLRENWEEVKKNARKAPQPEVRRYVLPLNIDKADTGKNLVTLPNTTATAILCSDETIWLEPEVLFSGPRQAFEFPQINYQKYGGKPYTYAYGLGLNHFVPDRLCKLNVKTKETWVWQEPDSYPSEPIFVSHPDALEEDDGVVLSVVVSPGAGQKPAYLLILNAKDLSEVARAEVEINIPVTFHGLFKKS

With `CC1=C(/C=C/C(C)=C/C=C/C(C)=C\C(=O)O)C(C)(C)CCC1` [13-cis-retinoic acid, reference compound], the “inhibition of 11-cis-retinal regeneration after bleaching (literature)” value with Sprague Dawley rats was “approximately 4 fold”. Consider `CCCCCCCCCCCCCCCCNC(=O)/C=C(\C)CC/C=C(\C)CCC=C(C)C` [TDH, 3,7,11-Trimethyl-dodeca-2,6,10-trienoic acid hexadecylamide], for which the Kd at purified bovine mRPE65 worked out at 96 ± 14 nM. The “effect on A2E accumulation” value in the experiment on Abca4−/− mice was “profound effects on limiting A2E accumulation”. In the same order, the values of `CCCCCCCCCCC(=O)/C=C(\C)CC/C=C(\C)CCC=C(C)C` [TDT, 13,17,21-Trimethyl-docosa-12,16,20-trien-11-one] are 58 ± 5 nM and “profound effects on limiting A2E accumulation”.
